Test results published in patent publication US20250064889A1, “TRPV6 INHIBITORS AND COMBINATION THERAPIES FOR TREATING CANCERS” (Soricimed Biopharma Inc., priority 2017, published 2025).

Key:
Human total Bel-2 = assay: Human Total Bcl-2 sandwich ELISA on BxPC-3 cells; assay type: cell-based; settings: 500 μM, at 96 hrs, p<0.05
Description: (§1) • Drug Dosing: Cells were plated at 5×10^5 cells/well in a 6-well plate. After 24 hrs incubation the BxPC-3 cells were dosed daily with NT (s.f. PBS) or 500 μM SOR-C13 (prepared fresh daily in f.s. PBS) for 72 hrs. Once dosed cells were incubated at 37° C./5% CO2 for the duration dosing period of 72 hrs. Dosing was repeated every 24 hrs for 72 hrs. Every 24 hrs protein lysates (RIPA) were prepared from cells and de-salted (7 kDa MWCO, Zebra spin columns, Fisher). Bel-2 assay was a 96 hrs dosing parameter. • Plate Assay (Calnr): Cellular Calcineurin concentration was monitored at 620 nm using the Calcineurin Cellular (PP2B) Phosphate Activity Assay kit (EMD Millipore). Results were interpolated from standard curve for amount of Phosphate released. • Plate Assay (Bcl-2): Human total Bel-2 concentration was performed using DuoSet® Human Total BcL-2 sandwich ELISA (R&D Systems). Bel-2 concentration for BxPC-3 cells was extrapolated from (4-PL) standard curve Bel-2.

MMP-9 = MMP-9 Cytoglow ELISA on BxPC-3 cells; assay type: cell-based; settings: BxPC-3 cells treated for 96 hr daily at 100 and 500 μM, p<0.05
Description: • Drug Dosing: BxPC-3 cells were plated at 2×10^4 cells/well in a 96-well plate and cultured overnight. Cells were dosed daily with NT (s.f. PBS) 100, 500 μM SOR-C13 (prepared fresh daily in f.s. PBS) for 96 hrs. Dosing was repeated every 24 hrs for 96 hrs. • Plate Assay: MMP-9 concentration was monitored using the MMP-9 Cytoglow ELISA (Assay Biotech). Cells were fixed to plate, and ELISA was performed, MMP-9 expression was calculated as % of No Treatment control.

[1] = tested on: NFAT signalling molecular pathway targets (Calnr, Bel-2, ATX, MMP-9 and NFAT); assay: In vitro dosing experiments, NFAT signalling molecular pathway targets (summary); assay type: cell-based
Description: (§2) • Transfection: T-47D cells were plated at 1×10^4 cells/well in a 96-well plate and cultured overnight. Cells were transfected for 24 hrs at 37° C./5% CO2 using Liptofectamine 3000 (0.3 μL/well)/P3000 Reagent (1 μL/well) in Opti-MEM medium and with a 500 ng of NFAT dual reporter plasmid (Cignal NFAT Reporter, Qiagen). • Drug Dosing: After transfection the T-47D cells were dosed daily with NT (s.f. PBS) or 500 μM SOR-C13 (prepared fresh daily in f.s. PBS) for 72 hrs. Once dosed the 96-well plate was incubated at 37° C./5% CO2 for the duration dosing period of 72 hrs. Dosing was repeated every 24 hrs for 72 hrs. • Plate Assay: Luminescence was monitored using Dual-Glo® Luciferase assay (Promega) to measure changes in NFAT luminescence expression (related to pKC pathway) between PBS and SOR-C13 treated T-47D cells. Firefly and Renilla Luminescence was measured using a molecular devices microplate reader.
• Drug Dosing: Cells were plated at 5×10^5 cells/well in a 6-well plate. After 24 hrs incubation the BxPC-3 cells were dosed daily with NT (s.f. PBS) or 500 μM SOR-C13 (prepared fresh daily in f.s. PBS) for 72 hrs. […] Bel-2 assay was a 96 hrs dosing parameter. • Plate Assay (Calnr): Cellular Calcineurin concentration was monitored at 620 nm using the Calcineurin Cellular (PP2B) Phosphate Activity Assay kit (EMD Millipore). […]

[2] = tested on: BxPC-3 pancreatic cancer cells; assay: Combination with immune checkpoint modulator: BxPC-3 cells co-incubated with activated Jurkat cells, viability and IL-2; assay type: cell-based; settings: BxPC-3 pre-treated with INF-γ, 100 μM SOR-C13 48 hours
Description: Experiments are performed to evaluate the effect of TRPV6 inhibitors in combination with immune checkpoint modulators such as PD-1 inhibitors (see Yang et al., Invest Ophthalmol Vis Sci. 2008 June; 49(6): 2518-2525; and FIG. 2). Briefly, BxPC-3 pancreatic cancer cells are treated with INF-γ for 48 hours to induce the cell surface expression of PD-L1. Once activated, sets of BxPC-3 cells are treated with 0 or 100 μM of SOR-C13 (KEFLHPSKVDLPR; SEQ ID NO:2) for 48 hours. Immune checkpoint modulatory test agents such as pembrolizumab (KEYTRUDA*) are added at various concentrations, along with activated Jurkat cells (i.e., cytotoxic T-cells), and co-incubated with the BxPC-3 cells for 48 hours.
Viability and IL-2 production is determined 48 hours later. Activated Jurkat cells produce IL-2 which mediates the killing of BxPC-3 cells. Cell death is quantified using the Cell Titre Glow Cellular Viability Assay. The effect of SOR-C13 on IL-2 mediated killing of BxPC-3 cells is compared to IL-2 mediated killing of BxPC-3 cells in the absence of SOR-C13.

[3] = Fu et al. 2017; cited from earlier work
NFAT activation = assay: In vitro NFAT analysis: NFAT dual reporter luciferase assay in T-47D cells; assay type: cell-based; settings: 500 μM daily for 72 hrs, p<0.05
Description: as §2

calcineurin = assay: Calcineurin Cellular (PP2B) Phosphate Activity Assay on BxPC-3 cell lysates; assay type: cell-based; settings: 500 μM, at 24 hrs and 72 hrs, p<0.05
Description: as §1

[4] = tested on: T-47D breast cancer cell lines; assay: RT-qPCR TaqMan Array, 187 gene panel, T-47D cells treated with SOR-C13; assay type: cell-based; settings: 500 μM for 120 hrs, genes with >1.5 fold change
Description: • mRNA Expression: The expression NFAT/Ca^2+ related genes mRNA levels were determined in 6 Cancer Cell lines treated with SOR-C13 (500 μM) for 120 hrs using a qPCR TaqMan® Array panel consisting of 187 genes (ThermoFisher). Cells were harvested with lysis buffer from the PureLink RNA Mini Kit and then RNA isolation carried out as per manufacturers instructions (ThermoFisher Scientific). RNA was quantified using the Qubit Fluorometer. Reverse Transcription was performed and cDNA created using SuperScript™ IV VILO Master Mix with ezDNase Enzyme (ThermoFisher Scientific). Each port of the Custom TaqMan® Array Card was loaded with 500 ng of cDNA and 1× TaqMan Fast Advanced Master Mix. RT-qPCR was performed using the Quantstudio™ 7Flex and analysis performed by ThermoFisher cloud software using GUSB and HRPT1 as endogenous controls.

KEFLHPSKVDLPR [SOR-C13]
Bel-2 expression (Human total Bel-2): significant decrease | MMP-9 expression, % from PBS control (MMP-9): reduction | NFAT signalling molecular pathway targets (Calnr, Bel-2, ATX, MMP-9 and NFAT) with treatment [1]: decreases | anti-cancer activity of immune checkpoint modulators such as pembrolizumab on addition of SOR-C13 [2]: increases | anti-tumour activity [3]: promising anti-tumour activity | tolerability and safety profile [3]: good tolerability and manageable safety profile | NFAT activation, SOR-C13-treated cells vs. PBS (NFAT activation): significant difference | calcineurin activity (calcineurin): inhibition | NFATC1, MMP2, GSK3 and RCAN1 mRNA expression (Calcineurin/NFAT pathway) [4]: affected
